Results: patent US20250367240A1, “DERIVATION OF GLUCOSE-RESPONSIVE INSULIN-SECRETING CELLS AND ORGANOIDS FROM HUMAN STOMACH CELLS AND THEIR USE TO TREAT DIABETES” (CORNELL UNIVERSITY, priority 2022, published 2025)
“Also recorded” adds a separate entry of the source.

Legend:
Format in all cases: cell-based, human
[1] = system: Ngn3ER/PM-hGSCs; assay: Supplement screen to formulate serum-free medium for GINS differentiation; conditions: day-7 post differentiation; for INS mRNA levels: single supplement in serum-free basal medium
Method: Ngn3ER/PM-hGSCs were seeded 5 days prior to differentiation in 96-well plate. To start differentiation, 1 μM 4-OH-TAM was added and incubated for 2 days. The culture medium was then changed to serum-free basal medium with one supplement and Doxycycline to activate Pdx1-Mafa expression. The basal serum-free medium for screens was prepared as follows: advanced DMEM/F12 (Thermo Fisher Scientific, 12634010) was supplemented with 10 mM HEPES (Thermo Fisher Scientific, 15-630-080), 1× GlutaMAX (Thermo Fisher Scientific, 35050061), 1× B-27 (Themo Fisher Scientific, 17504044), 1× N-2 (Thermo Fisher Scientific, 17502048), 25 μM Primocin, and 500 μM N-Acetyl-L-Cysteine (NAC) (Sigma-Aldrich, A9165). Seven days after supplement treatment, the following were (1) spontaneous clustering of nascent GINS cells by live imaging of mCherry^+ cells, and (2) qPCR of INS mRNA levels. Then multiple b-cell markers with qPCR on samples treated with Nicotinamide, Y-27632 and A8301 were analyzed.

[2] = system: GINS organoids; assay: Static glucose-stimulated insulin secretion (GSIS); conditions: day-18 organoids donor #6; 10 nM glibenclamide or 0.5 mM diazoxide
Method: Ten to twenty GINS organoids were sampled for each group. Organoids were washed with RPMI-1640 no nutrient medium (RPMIN, MyBioSource, MBS652918), and equilibrated in 3.3 mM glucose RPMIN for 2 hours. Organoids were incubated in low-glucose RPMIN for 1 hour, and supernatant was collected. Organoids were then incubated in high-glucose RPMIN for 1 hour, and supernatant was collected. For sequential glucose challenge, organoids were washed 2 times in RPMIN prior to the next stimulation. Secreted insulin was measured using the Stellux Chemi Human Insulin ELISA (ALPCO Diagnostics, 80-INSHU-CH10).

[3] = system: GINS organoids; assay: Dynamic GSIS with perifusion; conditions: day-21 organoids, two donors; 100 ng/mL Liraglutide in 20 mM glucose; 30 mM KCl in 2 mM glucose
Method: Twenty GINS organoids were sampled for each group. Organoids were washed with RPMIN and equilibrated in 1 mM glucose RPMIN for 2 hours at 37° C. incubator. The assay was performed in RPMIN on a temperature-controlled (37° C.) perifusion system (Biorep Technologies). Organoids were loaded in chambers and perfused at a flow rate of 100 μL/min in the following steps: (1) 48 min in 1 mM glucose, (2) 24 min in 2 mM glucose. (3) 36 min in 20 mM glucose, (4) 24 min in 20 mM glucose with 100 ng/mL Liraglutide (Cayman, 24727), (5) 48 min in 2 mM glucose, (6) 20 min in 2 mM glucose with 30 mM KCl. Secreted insulin was measured using the Stellux Chemi Human Insulin ELISA.

`Cc1cccc(-c2nn(C(=S)Nc3ccccc3)cc2-c2ccnc3ccccc23)n1` [A8301, 3-(6-methyl-2-pyridinyl)-N-phenyl-4-(4-quinolinyl)-1H-pyrazole-1-carbothioamide] was tested. Which “spontaneous aggregation (clustering) of nascent GINS cells” value ([1]; mCherry live imaging) did it give?
Its value is “stimulated; also recorded: most observable clustering effect”.

And the “expression of several key b-cell transcription factors” value ([1]; qPCR, vs no supplement control)?
Its value is “stimulated”.

With `CC1=NS(=O)(=O)c2cc(Cl)ccc2N1` [Diazoxide] as the molecule, how does the “insulin secretion response of GINS organoids to the drug” value [2] read?
The value was “responded”.

How did the “insulin secretion response of GINS organoids to the drug” value [2] turn out when `COc1ccc(Cl)cc1C(=O)NCCc1ccc(S(=O)(=O)NC(=O)NC2CCCCC2)cc1` [Glibenclamide] was run?
The value was “responded”.

Which “insulin secretion response of GINS cells to the agent, dynamic GSIS” value [3] does the source give for `[Cl-].[K+]` [KCl] here?
The value was “responded robustly”.

Which “INS mRNA levels” value ([1]; vs no supplement control) does the source give for `NC(=O)c1cccnc1` [Nicotinamide, 3-pyridinecarboxamide] here?
The value was “significantly promoted; also recorded: significantly up-regulated”.

With `C[C@@H](N)[C@H]1CC[C@H](C(=O)Nc2ccncc2)CC1.Cl.Cl` [Y-27632, trans-4-[(1R)-1-aminoethyl]-N-4-pyridinyl-Cyclohexanecarboxamide, dihydrochloride] as the molecule, how does the “INS mRNA levels” value ([1]; vs no supplement control, dihydrochloride) read?
The value was “significantly promoted; also recorded: significantly up-regulated”.
